Measurements as given in patent US20120123760A1, “METHOD FOR DESIGNING AN APTAMER” (Technology Innovations, LLC, priority 2010, published 2012).

Legend:
[1] = Fluorescence assay of 6FAM-labelled aptamer bound to DPPC+DPPS liposomes; type: binding
Source text: (§1) Two of the top-ranked 6-mer DNA designed aptamers targeting PS were chosen for experimental investigations. Both sequences containing fluorescence tags (6FAM is on the 3′ end of the DNA sequence) were obtained from Integrated DNA Technologies, Commercial Park, Coralville Iowa, USA. 96 well assay plates for fluorescence assays using FLUOstar OPTIMA (BMG Labtech GmbH, Offenburg, Germany) were from Corning Inc., New York, USA. Two lipids, 1,2-dipalmitoyl-sn-glycero-3-phosphatidylcholine (DPPC) and 1,2-dipalmitoyl-sn-glycero-3-phospho-L-serine (sodium salt) (DPPS) in chloroform stock and cholesterol (powder) were obtained from Avanti Polar Lipids (Alabaster, Ala., USA). They were used without further purification.
(§2) Two liposomes were prepared for studying binding affinity and specificity. One uses DPPC and DPPS at a 10:1 DPPC/DPPS molar ratio and the second one uses DPPC alone. […] 100 μL from this final solution was loaded into each of the 96 wells on the fluorescence plate to measure fluorescence of the samples. […]
(§3) Both sequences containing fluorescence tags (6FAM is on the 3′ end of the DNA sequence) were obtained from Integrated DNA Technologies, Commercial Park, Coralville Iowa, USA. 96 well assay plates for fluorescence assays using FLUOstar OPTIMA (BMG Labtech GmbH, Offenburg, Germany) were from Corning Inc., New York, USA. […]

[2] = Fluorescence assay of 6FAM-labelled aptamer bound to DPPC alone liposomes (control without PS); type: binding; conditions: FIG. 8 right panel
Source text: as §1, §2, §3

AAAGAC [PS-aptamer II]
binding affinity (inferred from fluorescence) [1]: relatively better or stronger binding affinity than PS-aptamer I
fluorescence level from bound DNA aptamer ([1]; FIG. 8 left panel, aptamer beyond 0.165 nmol): higher fluorescence level than PS-aptamer I
fluorescence level from bound DNA aptamer [2]: binds either poorly or not at all
